These are literature values, as cited in US20160128912A1, “Personal Care Compositions and Hangers” (The Procter & Gamble Company, priority 2014, published 2016).

In the case of `Oc1cc(Cl)ccc1Oc1ccc(Cl)cc1Cl` [Triclosan, reference compound], the “Log (water Solubility in mol/L)” value is on record as −2.46.

Consider `OCCc1ccccc1` [phenethyl alcohol], for which the “Log (water Solubility in mol/L)” value is reported as −0.83.

For the compound `OCc1ccccc1` [benzyl Alcohol], the “Log (water Solubility in mol/L)” value is given as −0.47.

For the compound `C=CCCCCCCCCC(=O)O` [Undecylenic Acid], the “Log (water Solubility in mol/L)” value is −3.15.

Regarding `CCCCCCC(O)CO` (centres unmarked) [caprylyl glycol], the “Log (water Solubility in mol/L)” value is −3.08.

Take `CCOC(=O)c1ccc(O)cc1` [ethyl paraben]: the “Log (water Solubility in mol/L)” value is −1.91.

In the case of `O=C(O)c1ccccc1O` [Salicylic acid, reference compound], the “Log (water Solubility in mol/L)” value is recorded as −1.41.

As to `C/C=C/C=C/C(=O)O` [sorbic acid], the “Log (water Solubility in mol/L)” value is recorded as −0.33.
